Laboratory results reported in the supplement of paper PMC5752671.

Tests used:
Experiment in all cases: IC50 (cell viability) (log10 M)
Conditions in all cases: 4 days
EOL-1 = system: EOL-1
Procedure: (§1)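 14 AML cell lines were treated with 8 drug concentrations in duplicate on ECM-coated 384-well plates, with CellTiter-Glo viability read after 4 days. IC50 is the concentration where the fitted 4-parameter curve crosses 50% viability. For inactive compounds the maximum tested concentration is used as a placeholder.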

HL60 = system: HL60
Procedure: as §1

KG1 = system: KG1
Procedure: as §1

MOLM/13 = system: MOLM/13
Procedure: as §1

MV4.11 = system: MV4.11
Procedure: as §1

SKM1 = system: SKM1
Procedure: as §1

THP-1 = system: THP-1
Procedure: as §1

U937 = system: U937
Procedure: as §1

| Compound | IC50 (log10 M) (EOL-1) | IC50 (log10 M) (HL60) | IC50 (log10 M) (KG1) | IC50 (log10 M) (MOLM/13) | IC50 (log10 M) (MV4.11) | IC50 (log10 M) (SKM1) | IC50 (log10 M) (THP-1) | IC50 (log10 M) (U937) |
| --- | --- | --- | --- | --- | --- | --- | --- | --- |
| CC(C)CC(=O)Nc1n[nH]c2c1CN(C(=O)C1CCN(C)CC1)C2(C)C | -7.54 | -6.01 | -5.76 | -7.75 | -7.67 | -7.49 | -6.18 | – |
| CN1CC[C@@H](NC(=O)Nc2ccc(C#N)cc2)C[C@@H]1c1nc2ccccc2[nH]1 | > -5 | > -5 | > -5 | > -5 | > -5 | > -5 | > -5 | > -5 |
| COc1ccc2c(c1)CCC1C2CCC2(C)C(NCCCCCCN3C(=O)C=CC3=O)CCC12 (centres undefined) | -6.09 | -6.4 | -5.95 | > -5 | -5.56 | -5.73 | -5.71 | -5.89 |
| Cc1cnc(Nc2ccc(OCCN3CCCC3)cc2)nc1Nc1cccc(S(=O)(=O)NC(C)(C)C)c1 | -7.2 | -5.83 | -6.17 | -6.89 | -7.28 | -5.97 | -5.84 | -5.78 |
| NC(=O)c1ccc(-c2nc(-c3ccccn3)c(-c3ccc4c(c3)OCO4)[nH]2)cc1 | -5.08 | > -5 | > -5 | > -5 | > -5 | > -5 | > -5 | > -5 |
| O=C(NC[C@H](O)CO)c1ccncc1Nc1ccc(I)cc1F | -7.52 | < -8.48 | -7.51 | -5.76 | -6.87 | < -8.48 | -6.09 | -5.51 |
| O=C1NC(=O)/C(=C\c2ccc3nccnc3c2)S1 | > -5 | > -5 | > -5 | > -5 | > -5 | > -5 | > -5 | > -5 |
| OCCn1cc(-c2cnc3nnn(Cc4ccc5ncccc5c4)c3n2)cn1 | > -5 | > -5 | > -5 | > -5 | > -5 | > -5 | > -5 | > -5 |
| Nc1ncnc2c1c(I)cn2[C@@H]1O[C@H](CO)[C@@H](O)[C@H]1O [5-Iodotubercidin] | -6.7 | -6.11 | -6.38 | -6.69 | -8.32 | -5.99 | -5.86 | -6.12 |
| CC1(C)CCC(c2ccc(Cl)cc2)=C(CN2CCN(c3ccc(C(=O)NS(=O)(=O)c4ccc(N[C@H](CCN5CCOCC5)CSc5ccccc5)c(S(=O)(=O)C(F)(F)F)c4)cc3)CC2)C1 [ABT-263] | -6.54 | -6.22 | -6.31 | -6.38 | -6.49 | > -5.96 | > -5.96 | > -5.96 |
| Cl[TeH]1(Cl)(Cl)OCCO1.N [AS101] | > -5 | > -5 | > -5 | -5.07 | -5.19 | > -5 | -5.02 | > -5 |
| CN1CCN(CCOc2cc(OC3CCOCC3)c3c(Nc4c(Cl)ccc5c4OCO5)ncnc3c2)CC1 [AZD0530] | -5.77 | > -5 | > -5 | -5.23 | -5.33 | > -5 | > -5 | > -5 |
| NC(=O)Nc1cc(-c2cccc(F)c2)sc1C(=O)N[C@H]1CCCNC1 [AZD7762] | < -8.48 | -6.87 | -6.83 | < -8.48 | < -8.48 | – | -7.65 | -7.84 |
| Cc1cc(C(=O)NOCCO)c(Nc2ccc(I)cc2F)n(C)c1=O [AZD8330] | < -8.34 | -8.31 | < -8.34 | -7.02 | -8.16 | < -8.34 | > -5 | > -5 |
| Cn1cnc2c(F)c(Nc3ccc(Br)cc3Cl)c(C(=O)NOCCO)cc21 [AZD-6244] | -6.11 | -6.75 | -5.45 | > -5 | -5.4 | -7.45 | > -5 | > -5 |
| COc1ccc(-c2ccc3ncc4c(c3c2)n(-c2ccc(N3CCNCC3)c(C(F)(F)F)c2)c(=O)n4C)cn1 [BGT-226] | -8.04 | -6.86 | -6.94 | -7.59 | -7.65 | -7.48 | -7 | -8.02 |
| CC[C@@H]1C(=O)N(C)c2cnc(Nc3ccc(C(=O)NC4CCN(C)CC4)cc3OC)nc2N1C1CCCC1 [BI-2536] | < -8.34 | < -8.34 | < -8.34 | < -8.34 | < -8.34 | < -8.34 | < -8.34 | < -8.34 |

| Compound | IC50 (log10 M) (EOL-1) | IC50 (log10 M) (HL60) | IC50 (log10 M) (KG1) | IC50 (log10 M) (MOLM/13) | IC50 (log10 M) (MV4.11) | IC50 (log10 M) (SKM1) | IC50 (log10 M) (THP-1) | IC50 (log10 M) (U937) |
| --- | --- | --- | --- | --- | --- | --- | --- | --- |
| CN(C)C/C=C/C(=O)Nc1cc2c(Nc3ccc(F)c(Cl)c3)ncnc2cc1O[C@H]1CCOC1 [BIBW 2992] | -6.43 | -5.68 | -5.46 | -5.43 | -6.25 | -5.76 | -5.4 | -5.56 |
| O=c1c(N=Nc2ccc(S(=O)(=O)O)cc2)c(-c2ccc([N+](=O)[O-])cc2)[nH]n1-c1ccccc1 [PHPS1] | > -5 | > -5 | > -5 | > -5 | > -5 | > -5 | > -5 | > -5 |
| Oc1cccc(-c2nc(N3CCOCC3)c3oc4ncccc4c3n2)c1 [PI-103] | -6.88 | -6.37 | -5.82 | -6.02 | -6.42 | -6.33 | -6.15 | -6.89 |
| COc1ccc2c3n(c(=NC(=O)c4cccnc4)nc2c1OC)CCN3 [PIK-90] | -5.42 | -5.78 | > -5 | > -5 | > -5 | > -5 | > -5 | > -5 |
| CC[C@H](C)C(=O)O[C@H]1C[C@H](O)C=C2C=C[C@H](C)[C@H](CC[C@@H](O)C[C@@H](O)CC(=O)O)[C@H]21 [Pravastatin] | > -5 | > -5 | > -5 | > -5 | > -5 | > -5 | > -5 | > -5 |
| CC[C@H](CO)Nc1nc(NCc2ccccc2)c2ncn(C(C)C)c2n1 [R-roscovitine] | > -5 | > -5 | > -5 | > -5 | > -5 | > -5 | > -5 | > -5 |
| COc1cc(F)c(F)c(Nc2ccc(I)cc2F)c1NS(=O)(=O)C1(C[C@H](O)CO)CC1 [RDEA-119] | -6.65 | -7.42 | -6.22 | -5.65 | -6.17 | -7.58 | -5.46 | -5.33 |
| COc1cc(Nc2c(C#N)cnc3cc(OCCCN4CCN(C)CC4)c(OC)cc23)c(Cl)cc1Cl [SKI-606] | -6.64 | -5.23 | -5.99 | -5.82 | -5.88 | -5.63 | -5.23 | -5.53 |
| Cc1cc(C(C)Nc2ccccc2)c2nc(N3CCOCC3)cc(=O)n2c1 (centres undefined) [TGX-221] | -5.06 | > -5 | > -5 | > -5 | > -5 | > -5 | > -5 | > -5 |
| NC(=O)Nc1sc(-c2ccc(F)cc2)cc1C(N)=O [TPCA-1] | -6.14 | -5.45 | -5.87 | -5.52 | -5.67 | -5.51 | – | -5.73 |
| CC1(C)CCC(C)(C)c2cc(NC(=O)c3ccc(C(=O)O)cc3)ccc21 [Tamibarotene] | -8.22 | > -5 | > -5 | > -5 | -6.79 | > -5 | > -5 | > -5 |
| CC/C(=C(\c1ccccc1)c1ccc(OCCN(C)C)cc1)c1ccccc1 [Tamoxifen] | -5.11 | -5.28 | -5.16 | > -5 | -5.38 | -5.01 | -5.04 | -5.43 |
| COc1cc2c(N3CCN(C(=O)Nc4ccc(OC(C)C)cc4)CC3)ncnc2cc1OCCCN1CCCCC1 [Tandutinib] | -7.82 | > -5 | > -5 | -6.98 | -6.16 | > -5 | > -5 | > -5 |
| Cn1nnc2c(C(N)=O)ncn2c1=O [Temozolomide] | -5.14 | > -5 | > -5 | > -5 | > -5 | > -5 | > -5 | > -5 |
| CCCC(CCC)C(=O)O [Valproic acid] | > -5 | > -5 | > -5 | > -5 | > -5 | > -5 | > -5 | > -5 |
| Clc1ccc(Nc2nnc(Cc3ccncc3)c3ccccc23)cc1 [Vatalanib] | -6.19 | > -5 | > -5 | > -5 | > -5 | > -5 | > -5 | > -5 |
| FC(F)c1nc2ccccc2n1-c1nc(N2CCOCC2)nc(N2CCOCC2)n1 [ZSTK-474] | -6.23 | -5.46 | > -5 | > -5 | > -5 | > -5 | > -5 | -5.8 |
